# Test results taken from patent US20250049800A1, “VCP/p97 INHIBITOR FOR THE TREATMENT OF CANCER” (CASI Pharmaceuticals, Inc., priority 2021, published 2025).
# Read-outs that look alike come from different tables or passages of the source.
# Assays:
# [1] = test system: OCI-AML-3 (Human Acute Myeloid Leukemia cell line); test: Combination Index (Chou-Talalay) of Compound 1 with second therapeutic agents; format: cell-based; conditions: for Combination Index: agent in combination with Compound 1, CI scores across all 3 ratios averaged, OCI-AML-3; for effect of the combination with Compound 1: OCI-AML-3 (FLT3 wildtype)
# Method: (§1) Each combination was tested in 3 cell lines: MOML-13 (Human Acute Myeloid Leukemia cell line; Addex Bio), MV-4-11 (Human B Myelomoncytic Leukemia cell line; ATCC), and OCI-AML-3 (Human Acute Myeloid Leukemia cell line).
# (§2) Within this range, 20 dose levels were tested for each combination, with each response determined in duplicate. […] The actual drug concentrations in the ratios were determined from the IC50 values obtained for each individual drug.
# (§3) Raw data was analyzed using Graph Pad Prism, four parameter logistic fits, and Chou-Talalay drug combination analyses. […] For data points with Fe<0, the fractional effect was set to 0.001. Data points with Fe>0.99 or <0.01 were omitted from the Chou-Talalay analysis because the Chou-Talalay analysis fits data to the Log of the fractional effect, with equal weight applied across the range of effect, such that the high and low end of the dose response, very small changes in effect within the range of experimental error erroneously skew the outcome of the model fit.
# (§4) A Combination Index (CI) vs Fractional Effect plot showing the actual combination index plotted vs Fractional effect value was plotted for each combination dose. In this analysis, CI=1 represents additive activity, CI>1 represent less than additive activity (often referred to as antagonism) and CI<1=synergistic activity (better than additive).
# [2] = test system: MV-4-11 (Human B Myelomoncytic Leukemia cell line); test: as above; format: cell-based; conditions: for Combination Index: agent in combination with Compound 1, CI scores across all 3 ratios averaged, MV-4-11; for effect of the combination with Compound 1: MV-4-11 (FLT3 homozygous mutant)
# Method: as §1, §2, §3, §4
# [3] = test system: MOML-13 (Human Acute Myeloid Leukemia cell line); test: as above; format: cell-based; conditions: for Combination Index: agent in combination with Compound 1, CI scores across all 3 ratios averaged, MOML-13; for effect of the combination with Compound 1: MOML-13 (BRCA2 mutant, FLT3 heterozygous)
# Method: as §1, §2, §3, §4
# [4] = test system: MV4; 11 cell line; test: Cell Titer-Glo viability, fixed agent + dose response agent combinations; format: cell-based, human; conditions: Homo sapiens
# Method: (§5) The additional therapeutic agents for this example were azacitidine (Cayman Chemical Cat No. 11164), decitabine (Sigma Cat No. A3656) and venetoclax (InvivoChem Cat. No. V0001).
# (§6) Cell Culture: Three human acute myeloid leukemia tumor cell lines were used in this study: HL60, MV4;11 and MOLM-13. HL60 and MV4;11 were grown in IMDM base media with 20% and 10% FBS, respectively. MOLM-13 was grown in RPMI 1640 base media with 20% FBS. All culture media contained 2 mM glutamine, 100 units/mL sodium penicillin G, […] gentamicin, and 100 µg/mL streptomycin sulfate. The tumor cells were cultured in tissue culture flasks in a humidified incubator at 37° C., in an atmosphere of 5% CO2 and 95% air. Assay: Tumor cells were seeded in duplicate in a volume of 100 µL/well of media into 96-well micro-culture plates at initial densities low enough to allow for several population doublings (typically three to five) during the indicated incubation period. After a 24 hour incubation, test agents were added to each well. After 72 hours of culture with test articles, cell viability was determined using the Cell Titer-Glo® (Promega G7571) assay. Briefly, Cell Titer-Glo® (Promega G7571) reagents were equilibrated at room temperature for 30 minutes; 100 μL per well was added at endpoint (72 hours). Plates were gently shaken for two minutes and then incubated at room temperature for ten minutes prior to reading luminescence on the BMG Clariostar Plus microplate reader.
# (§7) An IC50 ratio for each combination was calculated from the ratio of the combination IC50 as compared to the applicable no fixed agent (vehicle) control.
# [5] = test system: HL-60 cell line; test: as above; format: cell-based, human; conditions: Homo sapiens
# Method: as §5, §6, §7
# [6] = test system: MOML-13 cell line; test: as above; format: cell-based, human; conditions: Homo sapiens
# Method: as §5, §6, §7
# [7] = CB-5083 tested previously in subjects; cited from earlier work
# [8] = test system: MX-1 (Breast); test: Cell Titer-Glo viability: single agent IC50 and Compound 1 + PARP inhibitor matrix (Bliss); format: cell-based; conditions: for IC50: single agent, read-out: Absolute IC50; for # in matrix with Bliss >5: 6×6 matrix of PARP inhibitor with Compound 1
# Method: (§8) The PARP inhibitors used for the study were talazoparib, olaparib and niraparib. […] was used as a reference control. […] For each drug agent on its own, IC50 values in each cell line were determined. Interactions of the combinations of Compound 1 and each PARP inhibitor was assessed as follows: […] Cisplatin and culture media were used as positive and negative control, respectively. The combination activities were assessed using CrownSyn software to determine synergy scores by Bliss Independence and Loewe additivity methods. […] Synergy scores calculated by both Bliss independence model and Loewe additivity model (see Greco, […]., Poch, G., Suhnel, J., Kundi, M., & Bodeker, W. (1992). Consensus on concepts and terminology for combined-action assessment: the […] agreement. […] Without being bound by theory, the Bliss independence model is often applied to asses synergy for non-interacting drugs that elicit their responses independently, e.g., by targeting separate pathways, whereas the Loewe additivity model may be more compatible where both drugs have similar modes of action on the same targets or pathways.
# [9] = test system: Capan-1 (Pancreas); test: as above; format: cell-based; conditions: for IC50: single agent, read-out: Absolute IC50; for # in matrix with Bliss >5: 6×6 matrix of PARP inhibitor with Compound 1
# Method: as §8
# [10] = test system: HCC1395 (Breast); test: as above; format: cell-based; conditions: for IC50: single agent, read-out: Absolute IC50; for # in matrix with Bliss >5: 6×6 matrix of PARP inhibitor with Compound 1
# Method: as §8
# [11] = test system: IGR-OV1 (Ovary); test: as above; format: cell-based; conditions: for IC50: single agent, read-out: Absolute IC50; for # in matrix with Bliss >5: 6×6 matrix of PARP inhibitor with Compound 1
# Method: as §8
# [12] = test system: SK-OV-3 (Ovary); test: as above; format: cell-based; conditions: for IC50: single agent, read-out: Absolute IC50; for # in matrix with Bliss >5: 6×6 matrix of PARP inhibitor with Compound 1
# Method: as §8
# [13] = test system: DoTc2 4510 (Uterus/Cervix); test: as above; format: cell-based; conditions: for IC50: single agent, read-out: Absolute IC50; for # in matrix with Bliss >5: 6×6 matrix of PARP inhibitor with Compound 1
# Method: as §8
# [14] = test system: OVCAR-8 (Ovary); test: as above; format: cell-based; conditions: for IC50: single agent, read-out: Absolute IC50; for # in matrix with Bliss >5: 6×6 matrix of PARP inhibitor with Compound 1
# Method: as §8
# [15] = test system: HCC1937 (Breast); test: as above; format: cell-based; conditions: for IC50: single agent, read-out: Absolute IC50; for # in matrix with Bliss >5: 6×6 matrix of PARP inhibitor with Compound 1
# Method: as §8
# [16] = test system: DU4475 (Breast); test: as above; format: cell-based; conditions: for IC50: single agent, read-out: Absolute IC50; for # in matrix with Bliss >5: 6×6 matrix of PARP inhibitor with Compound 1
# Method: as §8
# [17] = test system: HCC1806 (Breast); test: as above; format: cell-based; conditions: for IC50: single agent, read-out: Absolute IC50; for # in matrix with Bliss >5: 6×6 matrix of PARP inhibitor with Compound 1
# Method: as §8
smiles,measurement,setting,value
COCC1(CO)C(=O)C2CCN1CC2 (stereo not shown) [APR-246],Combination Index,[1],1.279
same,Combination Index,[2],1.285
same,Combination Index,[3],1.228
CN(C)CCCOc1ccc(-c2ccc3ncc4c(c3c2)n(C2CCOCC2)c(=O)n4C)cn1 [AZDO156],Combination Index,[1],1.159
same,Combination Index,[2],1.122
same,Combination Index,[3],1.293
"Nc1ncn([C@@H]2O[C@H](CO)[C@@H](O)[C@H]2O)c(=O)n1 [Azacitidine, azacitidine, reference compound]",IC50,"[4]; MV4-11, MV4, 11, fixed agent Compound 1 - 185 nM, read-out: IC50",0.11 µM
same,IC50,"[5]; HL-60, HL-60, fixed agent Compound 1 - 210 nM, read-out: IC50",1.96 µM
same,IC50,"[6]; MOML-13, fixed agent Compound 1 - 75 nM, read-out: IC50",0.125 µM
"Cc1cc2c(C(N)=O)cccc2n1-c1nc2c(c(NCc3ccccc3)n1)COCC2 [CB-5083, 1-[7,8-dihydro-4-[(phenylmethyl)amino]-5H-pyrano[4,3-d]pyrimidin-2-yl]-2-methyl-1H-indole-4-carboxamide]",visual adverse events,[7],symptoms of visual impairment or other visual adverse events
N.N.[Cl][Pt][Cl] [Cisplatin],IC50,[8],6.6 µM
same,IC50,[9],1.68 µM
same,IC50,[10],4.75 µM
same,IC50,[11],1.45 µM
same,IC50,[12],8.3 µM
same,IC50,[13],10.2 µM
same,IC50,[14],9.22 µM
same,IC50,[15],12.1 µM
same,IC50,[16],1.6 µM
same,IC50,[17],3.24 µM
"Nc1ncn([C@H]2C[C@H](O)[C@@H](CO)O2)c(=O)n1 [Decitabine, decitabine, reference compound]",IC50,[4]; MV4-11,0.0071 µM
same,IC50,"[4]; MV4-11, 72 h",0.39 µM
same,IC50,[5]; HL-60,4.03 µM
same,IC50,"[5]; HL-60, 72 h",5.29 µM
same,IC50,[6],0.0065 µM
same,IC50,[6]; 72 h,0.0108 µM
CC(C)C[C@H](NC(=O)CNC(=O)c1cc(Cl)ccc1Cl)B(O)O [Ixazomib],effect of the combination with Compound 1,[1],antagonistic
same,Combination Index,[1],1.438
same,effect of the combination with Compound 1,[2],antagonistic
same,Combination Index,[2],1.546
same,effect of the combination with Compound 1,[3],antagonistic
same,Combination Index,[3],1.413
"NC(=O)c1cccc2cn(-c3ccc([C@@H]4CCCNC4)cc3)nc12 [Niraparib, niraparib]",# in matrix with Bliss >5,[8],4/36
same,# in matrix with Bliss >5,[9],2/36
same,IC50,"[9]; Homo sapiens, 72 h",> 5 µM
same,# in matrix with Bliss >5,[10],6/36
same,IC50,"[10]; Homo sapiens, 72 h",> 5 µM
same,# in matrix with Bliss >5,[11],7/36
same,IC50,"[11]; Homo sapiens, IGROV-1, 72 h",> 5 µM
same,# in matrix with Bliss >5,[12],8/36
same,# in matrix with Bliss >5,[13],6/36
same,# in matrix with Bliss >5,[14],9/36
same,IC50,"[14]; Homo sapiens, 72 h",> 5 µM
same,# in matrix with Bliss >5,[15],15/36
same,# in matrix with Bliss >5,[16],10/36
same,IC50,"[16]; Homo sapiens, DU-4475, 72 h",1.02 µM
same,# in matrix with Bliss >5,[17],9/36
same,IC50,"[17]; Homo sapiens, 72 h",> 5 µM
"O=C(c1cc(Cc2n[nH]c(=O)c3ccccc23)ccc1F)N1CCN(C(=O)C2CC2)CC1 [Olaparib, olaparib]",# in matrix with Bliss >5,[8],3/36
same,IC50,[8],> 5 µM
same,# in matrix with Bliss >5,[9],4/36
same,IC50,"[9]; Homo sapiens, 72 h",> 5 µM
same,# in matrix with Bliss >5,[10],8/36
same,IC50,"[10]; Homo sapiens, 72 h",> 5 µM
same,# in matrix with Bliss >5,[11],12/36
same,IC50,"[11]; Homo sapiens, IGROV-1, 72 h",> 5 µM
same,# in matrix with Bliss >5,[12],10/36
same,# in matrix with Bliss >5,[13],5/36
same,IC50,[13]; Homo sapiens,> 5 µM
same,# in matrix with Bliss >5,[14],8/36
same,IC50,"[14]; Homo sapiens, 72 h",> 5 µM
same,# in matrix with Bliss >5,[15],23/36
same,# in matrix with Bliss >5,[16],13/36
same,IC50,"[16]; Homo sapiens, DU-4475, 72 h",4.52 µM
same,# in matrix with Bliss >5,[17],17/36
same,IC50,"[17]; Homo sapiens, 72 h",> 5 µM
Cn1ncnc1[C@H]1c2n[nH]c(=O)c3cc(F)cc(c23)N[C@@H]1c1ccc(F)cc1 [Talazoparib],effect of the combination with Compound 1,[3],strong synergy
same,# in matrix with Bliss >5,[8],0/36
same,# in matrix with Bliss >5,[9],4/36
same,IC50,"[9]; Homo sapiens, 72 h",2.64 µM
same,# in matrix with Bliss >5,[10],0/36
same,IC50,"[10]; Homo sapiens, 72 h",> 5 µM
same,# in matrix with Bliss >5,[11],7/36
same,# in matrix with Bliss >5,[12],13/36
same,IC50,[12]; Homo sapiens,> 5 µM
same,# in matrix with Bliss >5,[13],5/36
same,# in matrix with Bliss >5,[14],6/36
same,IC50,"[14]; Homo sapiens, 72 h",> 5 µM
same,# in matrix with Bliss >5,[15],8/36
same,IC50,[15]; Homo sapiens,> 5 µM
same,# in matrix with Bliss >5,[16],15/36
same,IC50,"[16]; Homo sapiens, DU-4475, 72 h",0.03 µM
same,# in matrix with Bliss >5,[17],3/36
same,IC50,"[17]; Homo sapiens, 72 h",> 5 µM
CC1(C)CCC(CN2CCN(c3ccc(C(=O)NS(=O)(=O)c4ccc(NCC5CCOCC5)c([N+](=O)[O-])c4)c(Oc4cnc5[nH]ccc5c4)c3)CC2)=C(c2ccc(Cl)cc2)C1 [Venetoclax],Combination Index,[3],0.730
Nc1ccn([C@@H]2O[C@H](CO)[C@@H](O)[C@@H]2O)c(=O)n1 [cytarabine],effect of the combination with Compound 1,[1],additive effects
same,effect of the combination with Compound 1,[2],additive effects
same,effect of the combination with Compound 1,[3],additive effects
